Publication PMC12051620, “Molecular basis underlying the specificity of an antagonist AA92593 for mammalian melanopsins” (The Journal of Biological Chemistry, 2025)

Tests used:
[1] = molecular target: T1, human melanopsin WT (Homo sapiens, UniProt Q9UHM6); experiment: GsX GloSensor assay with Gsα/q11 (light-induced cAMP response); type: cell-based; settings: COS-1 cells
T1 construct: expressed in transfected cells; host or cells: COS-1
T1 sequence (Q9UHM6 1-384 limits assumed): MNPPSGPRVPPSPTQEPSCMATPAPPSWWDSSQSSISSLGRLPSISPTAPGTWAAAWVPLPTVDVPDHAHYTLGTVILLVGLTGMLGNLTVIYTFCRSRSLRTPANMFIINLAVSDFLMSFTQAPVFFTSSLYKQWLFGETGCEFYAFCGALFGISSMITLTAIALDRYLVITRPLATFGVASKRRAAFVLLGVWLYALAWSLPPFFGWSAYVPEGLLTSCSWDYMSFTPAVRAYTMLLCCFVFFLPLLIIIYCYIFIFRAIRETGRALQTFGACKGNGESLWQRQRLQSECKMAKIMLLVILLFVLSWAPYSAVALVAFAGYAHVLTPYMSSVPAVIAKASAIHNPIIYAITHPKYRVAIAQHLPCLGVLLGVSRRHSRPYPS
From the text: To quantify the antagonistic effects of AA92593 on mammalian melanopsins, we used the GsX GloSensor assay ([12], [13], [14]). This assay measures GPCR-induced increases in intracellular cAMP levels even for Gq-, Gi/o-, or G12-coupled receptors by using Gsα chimeras ([12], [13], [14]). Because melanopsin is primarily coupled with Gq-type G proteins, a Gsα mutant with 11 C-terminal sequence of Gqα (Gsα/q11) was expressed in COS-1 cells with melanopsin and a luciferase-based cAMP biosensor (see “Experimental procedures”) ([15]). This assay enables the measurement of Gq activation by melanopsin as cAMP production (an increase in luminescence). In this study, we used C-terminal–truncated melanopsin constructs to increase the expression levels with minimal compromise in functionality ([9], [16], [17], [18], [19]). […] In addition, the C-terminal region is located far from the binding site of AA92593 (see below). Hereafter, the C-terminal–truncated melanopsin constructs are named as “WT.”
In the constructs for melanopsin expression (opsin name - GenBank ID: human melanopsin - NM_033282.4, mouse melanopsin - NM_013887.2, Xenopus Opn4x - NM_001085674.1, chicken opn4-1 - NM_001397961.1, B. belcheri melanopsin - AB205400.1, and B. lanceolatum melanopsin - MF464477.1), the C-terminal amino acid residues (94, 140, 200, 214, 296, and 308 residues for human ([9]), mouse ([9]), Xenopus, chicken, belcheri ([16]), and lanceolatum melanopsins, respectively) were removed, the 1D4 tag sequence (ETSQVAPA) was added, and inserted into the EcoRI/NotI site in a mammalian expression vector pMT. Jumping spider rhodopsin-1 (GenBank ID: AB251846.1) was also added with the 1D4 tag and inserted into pMT vector. Human and mouse melanopsins, and jumping spider rhodopsin-1 in pCDNA3.1 were kindly provided from Drs. Akihisa Terakita and Mitsumasa Koyanagi (Osaka Metropolitan University). In this paper, each opsin with the C-terminal sequence modifications as described above is denoted “WT.” Bovine Gsα and its mutants Gsα/q11 and Gsα/i11 (C-terminal 11 residues are replaced with Gqα and Giα, respectively) were also inserted into the pMT vector. The GFP-tagged melanopsin constructs, in which EGFP protein fused with C-termini of melanopsins, were prepared as previously described ([9], [50]). […]
For GloSensor assay, opsins, GloSensor assay sensor (coded by pGlo-22F), and NanoBiT-tagged G proteins were transiently expressed in COS-1 cells (kindly provided from Dr David Farrens, Oregon Health and Science University) using PEI as described previously ([24], [52]). […] For GFP-fluorescence microscopy, a 35-mm cell culture dish (IWAKI) was transfected with 2 μg melanopsin-GFP plasmid and 8 μg PEI in 400 μl Opti-mem and 1.2 ml D-MEM. […]

[2] = molecular target: T2, human melanopsin (Homo sapiens, UniProt Q9UHM6); set-up: the C-terminal amino acid residues (94, 140, 200, 214, 296, and 308 residues); expressed in transfected cells; method as in PMID 23974117; settings: CHO cells; calcium imaging; 9-cis-retinal incubation several minutes; read-out: IC50 reported in the previous study; cited from earlier work
T2 sequence (Q9UHM6 1-384 limits assumed): T1 sequence (Q9UHM6 1-384 limits assumed)

[3] = relative peak cAMP response vs no AA92593

SMILES: COc1ccc(S(=O)(=O)N2CCCCC2)cc1C [AA92593]
- Hill fitting parameter rate of dose-response curve [1]: −0.92 ± 0.21
- IC50 ([1]; 0.1 μM 9-cis-retinal, white light 10 s, n = 3, read-out: IC50, reduction in peak cAMP responses upon Gsα/q11 activation): 1050 ± 280 nM
- Hill fitting parameter max of dose-response curve [1, 3]: 102.59 ± 2.72
- Hill fitting parameter min of dose-response curve [1, 3]: 13.65 ± 7.28
- IC50 [2]: 665 nM
